This assay concerns the target indoleamine 2, 3-dioxygenase (IDO1) (Homo sapiens, UniProt P14902). As to the kind of experiment: PBMC IDO1 assay (kynurenine via mass spectrometry). Type of assay: cell-based. The protocol: Compounds of the present invention were tested via high-throughput cellular assays utilizing detection of kynurenine via mass spectrometry and cytotoxicity as end-points. For the mass spectrometry and cytotoxicity assays, human peripheral blood mononuclear cells (PBMC) (PB003F; AllCells®, Alameda, Calif.) were stimulated with human interferon-γ (IFN-γ) (Sigma-Aldrich Corporation, St. Louis, Mo.) and lipopolysaccharide from Salmonella minnesota (LPS) (Invivogen, San Diego, Calif.) to induce the expression of indoleamine 2, 3-dioxygenase (IDO1). Compounds with IDO1 inhibitory properties decreased the amount of kynurenine produced by the cells via the tryptophan catabolic pathway. Cellular toxicity due to the effect of compound treatment was measured using CellTiter-Glo® reagent (CTG) (Promega Corporation, Madison, Wis.), which is based on luminescent detection of ATP, an indicator of metabolically active cells.
In preparation for the assays, test compounds were serially diluted 3-fold in DMSO from a typical top concentration of 5 mM and plated at 0.5 μL in 384-well, polystyrene, clear bottom, tissue culture treated plates with lids (Greiner Bio-One, Kremsmünster, Austria) to generate 11-point dose response curves. Low control wells (0% kynurenine or 100% cytotoxicity) contained either 0.5 μL of DMSO in the presence of unstimulated (-IFN-γ/-LPS) PBMCs for the mass spectrometry assay or 0.5 μL of DMSO in the absence of cells for the cytotoxicity assay, and high control wells (100% kynurenine or 0% cytotoxicity) contained 0.5 μL of DMSO in the presence of stimulated (+IFN-γ/+LPS) PBMCs for both the mass spectrometry and cytotoxicity assays.
Frozen stocks of PBMCs were washed and recovered in RPMI 1640 medium (Thermo Fisher Scientific, Inc., Waltham, Mass.) supplemented with 10% v/v heat-inactivated fetal bovine serum (FBS) (Thermo Fisher Scientific, Inc., Waltham, Mass.), and 1× penicillin-streptomycin antibiotic solution (Thermo Fisher Scientific, Inc., Waltham, Mass.). The cells were diluted to 1,000,000 cells/mL in the supplemented RPMI 1640 medium. 50 μL of either the cell suspension, for the mass spectrometry assay, or medium alone, for the cytotoxicity assay, were added to the low control wells, on the previously prepared 384-well compound plates, resulting in 50,000 cells/well or 0 cells/well respectively. IFN-γ and LPS were added to the remaining cell suspension at final concentrations of 100 ng/ml and 50 ng/ml respectively, and 50 μL of the stimulated cells were added to all remaining wells on the 384-well compound plates. The plates, with lids, were then placed in a 37° C., 5% CO2 humidified incubator for 2 days.
Following incubation, the 384-well plates were removed from the incubator and allowed to equilibrate to room temperature for 30 minutes. For the cytotoxicity assay, CellTiter-Glo® was prepared according to the manufacturer's instructions, and 40 μL were added to each plate well. After a twenty minute incubation at room temperature, luminescence was read on an EnVision® Multilabel Reader (PerkinElmer Inc., Waltham, Mass.). For the mass spectrometry assay, 10 μL of supernatant from each well of the compound-treated plates were added to 40 μL of acetonitrile, containing 10 μM of an internal standard for normalization, in 384-well, polypropylene, V-bottom plates (Greiner Bio-One, Kremsmünster, Austria) to extract the organic analytes. Following centrifugation at 2000 rpm for 10 minutes, 10 μL from each well of the acetonitrile extraction plates were added to 90 μL of sterile, distilled H2O in 384-well, polypropylene, V-bottom plates for analysis of kynurenine and the internal standard on the RapidFire 300 (Agilent Technologies, Santa Clara, Calif.) and 4000 QTRAP MS (SCIEX, Framingham, Mass.). MS data were integrated using Agilent Technologies' RapidFire Integrator software, and data were normalized for analysis as a ratio of kynurenine to the internal standard. […]

The mark [1] stands for this setting: human PBMC stimulated with IFN-γ and LPS, 2 days, kynurenine by mass spectrometry, recorded as pIC50, read-out: PBMC PXC50_ (converted).

Read-outs that look alike come from different tables or passages of the source.

Chain of indoleamine 2, 3-dioxygenase (IDO1) (P14902 whole entry): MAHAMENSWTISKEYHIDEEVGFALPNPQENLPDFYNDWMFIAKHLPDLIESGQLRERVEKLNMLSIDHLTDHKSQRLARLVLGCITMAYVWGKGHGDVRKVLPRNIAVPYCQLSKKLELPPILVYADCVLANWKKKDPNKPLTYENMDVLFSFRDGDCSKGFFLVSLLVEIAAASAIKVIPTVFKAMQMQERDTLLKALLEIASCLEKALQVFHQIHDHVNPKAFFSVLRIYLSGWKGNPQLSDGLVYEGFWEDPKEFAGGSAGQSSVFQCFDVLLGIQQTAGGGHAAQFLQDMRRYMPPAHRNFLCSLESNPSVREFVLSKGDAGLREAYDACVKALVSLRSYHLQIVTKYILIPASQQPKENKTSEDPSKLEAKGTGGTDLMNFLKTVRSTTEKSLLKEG

For the compound `Cc1cnccc1OC(=O)N1CCC(C(CC(C)C)NC(=O)c2ccc(Cl)cc2)CC1` (stereo not drawn) [Example 29, 3-methylpyridin-4-yl 4-{1-[(4-chlorophenyl)formamido]-3-methylbutyl}piperidine-1-carboxylate], the IC50 under setting [1] was 5.01 nM.

For the compound `COc1ncccc1OC(=O)N1CCC(C(CC(C)C)NC(=O)c2ccc(F)cc2)CC1` (stereo not drawn) [Example 30, 2-methoxypyridin-3-yl 4-{1-[(4-fluorophenyl)formamido]-3-methylbutyl}piperidine-1-carboxylate], the IC50 is 5.01 nM.

`O=C(N[C@H](c1ccccc1)C1CCN(C(=O)Oc2cccnc2F)CC1)c1ccc(Cl)cc1` [Example 31, 2-fluoropyridin-3-yl 4-[(S)-[(4-chlorophenyl)formamido](phenyl)methyl]piperidine-1-carboxylate] gave an IC50 of 5.01 nM.

`Cc1ccc(C(=O)N[C@H](C2CC2)C2CCN(C(=O)Oc3ccnc(C)c3C)CC2)s1` [Example 32, 2,3-dimethylpyridin-4-yl 4-[(R)-cyclopropyl[(5-methylthiophen-2-yl)formamido]methyl]piperidine-1-carboxylate]: the IC50 under setting [1] was 5.01 nM.

Take `Cc1c(OC(=O)N2CCC(C(CC(C)C)NC(=O)c3ccc(F)cc3)CC2)ccnc1F` (stereo not drawn) [Example 33, 2-fluoro-3-methylpyridin-4-yl 4-{1-[(4-fluorophenyl)formamido]-3-methylbutyl}piperidine-1-carboxylate]: under setting [1], the IC50 was 6.31 nM.

Compound `CC(C)CC(NC(=O)c1ccc(Cl)cc1)C1CCN(C(=O)Oc2cccnc2C(C)C)CC1` (stereo not drawn) [Example 34, 2-(propan-2-yl)pyridin-3-yl 4-{1-[(4-chlorophenyl)formamido]-3-methylbutyl}piperidine-1-carboxylate] showed an IC50 of 6.31 nM.

Take `Cc1nccc(OC(=O)N2CCC(C(CC(C)C)NC(=O)c3ccc(Cl)cc3)CC2)c1C` (stereo not drawn) [Example 35, 2,3-dimethylpyridin-4-yl 4-{1-[(4-chlorophenyl)formamido]-3-methylbutyl}piperidine-1-carboxylate]: the IC50 under setting [1] is 6.31 nM.

In the case of `Cc1c(F)cccc1OC(=O)N1CCC([C@@H](C)NC(=O)c2ccc(Cl)s2)CC1` [Example 36, 3-fluoro-2-methylphenyl 4-[(1R)-1-[(5-chlorothiophen-2-yl)formamido]ethyl]piperidine-1-carboxylate], the IC50 under setting [1] is 6.31 nM.

Turning to `CC(C)CC(NC(=O)c1ccc(F)cc1)C1CCN(C(=O)Oc2ccccc2)CC1` (stereo not drawn) [Example 37, phenyl 4-{1-[(4-fluorophenyl)formamido]-3-methylbutyl}piperidine-1-carboxylate], the IC50 under setting [1] is 7.94 nM.

`C[C@@H](NC(=O)c1ccc(Cl)s1)C1CCN(C(=O)Oc2ccccc2)CC1` [Example 38, phenyl 4-[(1R)-1-[(5-chlorothiophen-2-yl)formamido]ethyl]piperidine-1-carboxylate]: the IC50 under setting [1] was 7.94 nM.

For the compound `CC(C)CC(NC(=O)c1ccccc1)C1CCN(C(=O)Oc2ccccc2)CC1` (stereo not drawn) [Example 39, phenyl 4-[3-methyl-1-(phenylformamido)butyl]piperidine-1-carboxylate], the IC50 under setting [1] is 7.94 nM.

Turning to `Cc1cccc(OC(=O)N2CCC(C(CC(C)C)NC(=O)c3ccc(F)cc3)CC2)c1C` (stereo not drawn) [Example 40, 2,3-dimethylphenyl 4-{1-[(4-fluorophenyl)formamido]-3-methylbutyl}piperidine-1-carboxylate], under setting [1], the IC50 was 7.94 nM.

Take `CC(C)CC(NC(=O)c1ccc(F)cc1)C1CCN(C(=O)Oc2cccc(C#N)c2F)CC1` (stereo not drawn) [Example 41, 3-cyano-2-fluorophenyl 4-{1-[(4-fluorophenyl)formamido]-3-methylbutyl}piperidine-1-carboxylate]: the IC50 under setting [1] was 7.94 nM.

As to `COCCC[C@@H](NC(=O)c1ccc(F)cc1)C1CCN(C(=O)Oc2cccc(F)c2C)CC1` [Example 42, 3-fluoro-2-methylphenyl 4-[(1R)-1-[(4-fluorophenyl)formamido]-4-methoxybutyl]piperidine-1-carboxylate], the IC50 under setting [1] is 7.94 nM.

For `O=C(NC(c1ccccc1)C1CCN(C(=O)Oc2ccccc2)CC1)c1ccccc1` (stereo not drawn) [Example 43, phenyl 4-[phenyl(phenylformamido)methyl]piperidine-1-carboxylate], the IC50 under setting [1] is 10 nM.

In the case of `Cc1nccc(OC(=O)N2CCC(C(CC(C)C)NC(=O)c3ccc(F)cc3)CC2)c1C` (stereo not drawn) [Example 44, 2,3-dimethylpyridin-4-yl 4-{1-[(4-fluorophenyl)formamido]-3-methylbutyl}piperidine-1-carboxylate], the IC50 under setting [1] is 10 nM.

For `CC(C)CC(NC(=O)c1ccc(F)cc1)C1CCN(C(=O)Oc2cncc(F)c2)CC1` (stereo not drawn) [Example 45, 5-fluoropyridin-3-yl 4-{1-[(4-fluorophenyl)formamido]-3-methylbutyl}piperidine-1-carboxylate], the IC50 was 10 nM.

As to `O=C(NC(C1CC1)C1CCN(C(=O)Oc2ccccc2)CC1)c1ccc(Cl)s1` (stereo not drawn) [Example 46, phenyl 4-{[(5-chlorothiophen-2-yl)formamido](cyclopropyl)methyl}piperidine-1-carboxylate], the IC50 under setting [1] is 10 nM.

With `CC(C)CC(NC(=O)c1ccc(F)cc1)C1CCN(C(=O)Oc2ccncc2F)CC1` (stereo not drawn) [Example 47, 3-fluoropyridin-4-yl 4-{1-[(4-fluorophenyl)formamido]-3-methylbutyl}piperidine-1-carboxylate], the IC50 under setting [1] was 10 nM.

For `CC(C)CC(NC(=O)c1ccc(F)cc1)C1CCN(C(=O)Oc2ccnc(F)c2F)CC1` (stereo not drawn) [Example 48, 2,3-difluoropyridin-4-yl 4-{1-[(4-fluorophenyl)formamido]-3-methylbutyl}piperidine-1-carboxylate], the IC50 under setting [1] was 10 nM.

With `COc1ncccc1OC(=O)N1CCC([C@H](NC(=O)c2ccc(Cl)cc2)c2ccccc2)CC1` [Example 49, 2-methoxypyridin-3-yl 4-[(S)-[(4-chlorophenyl)formamido](phenyl)methyl]piperidine-1-carboxylate], the IC50 was 10 nM.

As for `CC(C)CC(NC(=O)c1ccc(F)cc1)C1CCN(C(=O)Oc2ccc(F)cc2)CC1` (stereo not drawn) [Example 50, 4-fluorophenyl 4-{1-[(4-fluorophenyl)formamido]-3-methylbutyl}piperidine-1-carboxylate], under setting [1], the IC50 is 12.6 nM.

Regarding `Cc1nccc(OC(=O)N2CCC(C(CC(C)C)NC(=O)c3ccc(F)cc3)CC2)c1F` (stereo not drawn) [Example 51, 3-fluoro-2-methylpyridin-4-yl 4-{1-[(4-fluorophenyl)formamido]-3-methylbutyl}piperidine-1-carboxylate], under setting [1], the IC50 is 12.6 nM.

Regarding `CC(NC(=O)c1ccc(Cl)s1)C1CCN(C(=O)Oc2ccccc2)CC1` (stereo not drawn) [Example 52, phenyl 4-{1-[(5-chlorothiophen-2-yl)formamido]ethyl}piperidine-1-carboxylate], the IC50 under setting [1] is 15.8 nM.

Turning to `O=C(NC(c1ccccc1)C1CCN(C(=O)Oc2ccccc2)CC1)c1ccc(Cl)c(F)c1` (stereo not drawn) [Example 53, phenyl 4-{[(4-chloro-3-fluorophenyl)formamido](phenyl)methyl}piperidine-1-carboxylate], the IC50 under setting [1] is 20 nM.

In the case of `COc1cccc(OC(=O)N2CCC(C(CC(C)C)NC(=O)c3ccc(F)cc3)CC2)c1` (stereo not drawn) [Example 54, 3-methoxyphenyl 4-{1-[(4-fluorophenyl)formamido]-3-methylbutyl}piperidine-1-carboxylate], the IC50 under setting [1] is 20 nM.

As to `CC(C)CC(NC(=O)c1ccc(F)cc1)C1CCN(C(=O)Oc2ccnc(F)c2)CC1` (stereo not drawn) [Example 55, 2-fluoropyridin-4-yl 4-{1-[(4-fluorophenyl)formamido]-3-methylbutyl}piperidine-1-carboxylate], the IC50 under setting [1] is 20 nM.
